# Test results reported in patent US8815860B2, “Methods for preventing oxidative stress injury of a tissue by a Folate-TEMPOL conjugate” (Emory University, priority 2009, dated 2014).
# Experiments:
# [1] = tested on: human proximal tubule (HK-2) cells; test: Superoxide concentration in LPS-treated cultured HK-2 cells measured by DHE-HPLC; assay type: cell-based; settings: LPS treated HK-2 cells, normalized to protein concentration, n=3 (FIG. 1)
# Description: Superoxide concentration was normalized to protein concentration. Data represent mean and SEM.
# Typically, cultured human proximal tubule (HK-2) cells were treated with LPS to induce superoxide free radical formation. The level of superoxide is indicated by the formation of 2-hydroxyethidium as described, for example by Zielonka et al., (2008) Nat. Protocols 3: 8-21, incorporated herein by reference in its entirety.
# [2] = tested on: C57bl/6J mice, bilateral renal ischemia-reperfusion; test: 30 minute bilateral renal ischemia-reperfusion in mice; assay type: in vivo; settings: for urinary albumin excretion: 24 hour urine, collected 48 hours following 30 minute bilateral renal ischemia-reperfusion (FIG. 2); for plasma creatinine levels: 48 hours following 30 minute bilateral renal ischemia-reperfusion (FIG. 3); for plasma blood urea nitrogen (BUN): 48 hours following 30 minutes bilateral renal ischemia-reperfusion (FIG. 4); for kidney superoxide (hydrocyanine-3 fluorescence, DHE-HPLC, nitrotyrosine staining): mouse kidney after 30 minutes renal ischemia (FIG. 6)
# Description: Samples were collected 48 hours following 30 minute bilateral renal ischemia-reperfusion. Data represent mean and SEM.
# (§1) Data represent mean and SEM.
# BUN was measured 48 hours following 30 minutes bilateral renal ischemia-reperfusion. Data represent mean and SEM.
# The effects of the Folate-TEMPOL conjugate of the present disclosure on renal ischemic-reperfusion injury prevention were observed by intravenously administering TEMPOL or Folate-TEMPOL. The renal artery was then clamped for about 30 mins, followed by 48 hours of reperfusion. Parameters measured as indicators of renal tubule injury included creatinine, BUN, and albumin levels both before and after ischemia. Also measured were the TEMPOL and Folate-TEMPOL concentrations in the plasma and the kidney.
# [3] = tested on: human proximal tubule (HK-2) cells; test: Uptake into HK-2 cells quantified by electron spin resonance (ESR); assay type: cell-based; settings: after incubation with HK-2 cells, ESR (FIG. 5D, 5E)
# [4] = Tissue concentration quantified by ESR in mice after 48 hour intravenous infusion; assay type: in vivo; settings: kidney, ESR (FIG. 5F)
# Source text: as §1
# [5] = listed as Folate-TEMPOL conjugate
SMILES,superoxide concentration in cultured HK-2 cells [1],superoxide concentration in cultured HK-2 cells ([1]; listed as Folate-TEMPOL),urinary albumin excretion [2],"urinary albumin excretion [2, 5]",plasma creatinine levels [2],"plasma creatinine levels [2, 5]",plasma blood urea nitrogen (BUN) [2],"plasma blood urea nitrogen (BUN) [2, 5]","renal structure, hematoxylin and eosin (H&E) staining of kidney sections ([2]; kidney sections harvested 48 hours post-ischemia (FIG. 7))","kidney superoxide (hydrocyanine-3 fluorescence, DHE-HPLC, nitrotyrosine staining) [2]","kidney superoxide (hydrocyanine-3 fluorescence, DHE-HPLC, nitrotyrosine staining) [2, 5]",HK-2 cell concentration of tempol and tempol-folate [3],HK-2 cell concentration of tempol and tempol-folate ([3]; listed as Folate-TEMPOL),tissue tempol and tempol-folate concentration [4]
"CC1(C)CC(O)CC(C)(C)N1[O] [Tempol, 4-hydroxy-2,2,6,6-tetramethylpiperidine 1-oxyl]",effectively scavenged superoxide production,,,,,,,,,,,,,
CC1(C)CC(NC(=O)CCC(NC(=O)c2ccc(NCc3cnc4nc(N)nc(O)c4n3)cc2)C(=O)O)CC(C)(C)N1[O] (stereo not drawn) [tempol-folate],effectively scavenged superoxide production,inhibits superoxide as efficiently as TEMPOL alone,prevents kidney injury more effectively than free tempol,the reduction was greater than if TEMPOL alone was used,preserves glomerular filtration rate from ischemia-reperfusion more effectively than unconjugated tempol,the reduction was greater than if TEMPOL alone was used,proximal tubule function is protected from ischemic injury by tempol-folate compared with free tempol,the reduction was greater than if TEMPOL alone was used,renal structure is protected from renal ischemia-reperfusion injury by tempol-folate treatment more efficiently than by ternpol treatment,more effective at scavenging superoxide in the kidney,significantly reduced,becomes more concentrated in cultured proximal tubule cells,accumulates in cultured proximal tubule cells to a greater extent than un-conjugated Tempol,becomes more concentrated in cultured proximal tubule cells and in vivo in kidneys of mice compared with tempol
